Data: patent US11780839B2, “Compounds for treating Huntington's disease” (PTC THERAPEUTICS, INC., priority 2018, dated 2023)
pIC50: −log10 of the molar value.

Test system: Endogenous Huntingtin Protein
Assay: Endogenous Huntingtin Protein Assay (ELISA-based Meso Scale Discovery electrochemiluminescence)
Format: cell-based
Conditions: MSD electrochemiluminescence, Table 1
How it was run: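 Sandwich MSD electrochemiluminescence immunoassay. Capture used MW1 (expanded polyglutamine) or MAB2166 antibody coated at 1 μg/mL overnight at 4 °C. Samples were bound overnight at 4 °C, then a rabbit monoclonal detection antibody and SULFO-TAG anti-rabbit, each at 0.25 μg/mL, were applied for 1 h at room temperature.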

pIC50	Compound
6.30 to 7.00	CN1CCC2(CCN(c3ncc(-c4ccc(-c5cn[nH]c5)cc4O)nn3)CC2)C1 [Cpd 183]
6.30 to 7.00	CC(C)(C)NC1CCN(c2ncc(-c3ccc(-n4ccnc4)cc3O)nn2)C1 (stereo not drawn) [Cpd 187, 2-{3-[3-(tert-butylamino)pyrrolidin-l-yl]-1,2,4-triazin-6-yl}-5-(1H-imidazol-1-yl)phenol]
≥ 7.00	CC1(C)C[C@@H](Nc2ncc(-c3ccc(-c4c[nH]nc4F)cc3O)nn2)[C@@H](F)C(C)(C)N1 [Cpd 189, 5-(3-fluoro-1H-pyrazol-4-yl)-2-(3-{[(3R,4R)-3-fluoro-2,2,6,6-tetramethylpiperidin-4-yl]amino}-1,2,4-triazin-6-yl)phenol]
5.52 to 6.00	CC(C)(C)N[C@@H]1CC[C@@H]2CN(c3ncc(-c4ccc(-c5cn[nH]c5)cc4O)nn3)C[C@@H]21 [Cpd 193, 2-{3-[(3aR,4R,6aS)-4-(tert-butylamino)hexahydrocyclopenta[c]pyrrol-2(1H)-yl]-1,2,4-triazin-6-yl}-5-(1H-pyrazol-4-yl)phenol]
6.30 to 7.00	Cc1cn(-c2ccc(-c3cnc(N4CCC(NC(C)(C)C)C4)nn3)c(O)c2)cn1 (stereo not drawn) [Cpd 197, 2-{3-[3-(tert-butylamino)pyrrolidin-l-yl]-1,2,4-triazin-6-yl}-5-(4-methyl-1H-imidazol-1-yl)phenol]
≥ 7.00	Cn1cc(-c2ccc(-c3cnc(NC4CC(C)(C)NC(C)(C)C4)nn3)c(O)c2)cn1 [Cpd 199, 5-(1-methyl-1H-pyrazol-4-yl)-2-{3-[(2,2,6,6-tetramethylpiperidin-4-yl)amino]-1,2,4-triazin-6-yl}phenol]
≥ 7.00	Cn1cc(-c2ccc(-c3cnc(N[C@H]4CC(C)(C)NC(C)(C)[C@H]4F)nn3)c(O)c2)cn1 [Cpd 201, 2-(3-{[(3S,4S)-3-fluoro-2,2,6,6-tetramethylpiperidin-4-yl]amino}-1,2,4-triazin-6-yl)-5-(1-methyl-1H-pyrazol-4-yl)phenol]
≥ 7.00	Cn1cc(-c2ccc(-c3cnc(N4CCC(NC(C)(C)C)C4)nn3)c(O)c2)cn1 (stereo not drawn) [Cpd 202, 2-{3-[3-(tert-butylamino)pyrrolidin-l-yl]-1,2,4-triazin-6-yl}-5-(1-methyl-1H-pyrazol-4-yl)phenol]
≥ 7.00	CC(C)NC1CCN(c2ncc(-c3ccc(-c4cnn(C)c4)cc3O)nn2)C1 (stereo not drawn) [Cpd 203]
≥ 7.00	CC(C)(C)NC1CCN(c2ncc(-c3ccc(-n4nccn4)cc3O)nn2)C1 (stereo not drawn) [Cpd 204, 2-{3-[3-(tert-butylamino)pyrrolidin-l-yl]-1,2,4-triazin-6-yl}-5-(2H-1,2,3-triazol-2-yl)phenol]
≥ 7.00	CNC1CCN(c2ncc(-c3ccc(-c4cnn(C)c4)cc3O)nn2)C1 (stereo not drawn) [Cpd 205, 2-{3-[3-(methylamino)pyrrolidin-l-yl]-1,2,4-triazin-6-yl}-5-(1-methyl-1H-pyrazol-4-yl)phenol]
5.52 to 6.00	CC(C)(C)NC1CCN(c2ncc(-c3ccc(-c4cn[nH]c4)cc3O)nn2)CC1 [Cpd 206, 2-{3-[4-(tert-butylamino)piperidin-l-yl]-1,2,4-triazin-6-yl}-5-(1H-pyrazol-4-yl)phenol]
5.52 to 6.00	CC(C)(C)NC1CCN(c2ncc(-c3ccc(-c4ccn5nncc5c4)cc3O)nn2)C1 (stereo not drawn) [Cpd 207, 2-{3-[3-(tert-butylamino)pyrrolidin-l-yl]-1,2,4-triazin-6-yl}-5-([1,2,3]triazolo[1,5-a]pyridin-5-yl)phenol]
6.30 to 7.00	Cn1ncc2cc(-c3ccc(-c4cnc(N5CCC(NC(C)(C)C)C5)nn4)c(O)c3)ccc21 (stereo not drawn) [Cpd 208, 2-{3-[3-(tert-butylamino)pyrrolidin-l-yl]-1,2,4-triazin-6-yl}-5-(1-methyl-1H-indazol-5-yl)phenol]
5.52 to 6.00	CC(C)(C)NC1CCN(c2ncc(-c3ccc(-c4ncccn4)cc3O)nn2)C1 (stereo not drawn) [Cpd 209, 2-{3-[3-(tert-butylamino)pyrrolidin-l-yl]-1,2,4-triazin-6-yl}-5-(pyrimidin-2-yl)phenol]
≥ 7.00	Cn1ncc(-c2ccc(-c3cnc(N4CCC(NC(C)(C)C)C4)nn3)c(O)c2)n1 (stereo not drawn) [Cpd 210, 2-{3-[3-(tert-butylamino)pyrrolidin-1-yl]-1,2,4-triazin-6-yl}-5-(2-methyl-2H-1,2,3-triazol-4-yl)phenol]
≥ 7.00	Cn1nnc(-c2ccc(-c3cnc(N4CCC(NC(C)(C)C)C4)nn3)c(O)c2)n1 (stereo not drawn) [Cpd 211, 2-{3-[3-(tert-butylamino)pyrrolidin-1-yl]-1,2,4-triazin-6-yl}-5-(2-methyl-2H-tetrazol-5-yl)phenol]
6.30 to 7.00	CC(C)(C)NC1CCCN(c2ncc(-c3ccc(-c4cn[nH]c4)cc3O)nn2)C1 (stereo not drawn) [Cpd 212, 2-{3-[3-(tert-butylamino)piperidin-1-yl]-1,2,4-triazin-6-yl}-5-(1H-pyrazol-4-yl)phenol]

Compound	pIC50
CN(c1ncc(-c2ccc(-c3cc4cn[nH]c4cn3)cc2O)nn1)C1CC(C)(C)NC(C)(C)C1 [Cpd 184, 2-{3-[methyl(2,2,6,6-tetramethylpiperidin-4-yl)amino]-1,2,4-triazin-6-yl}-5-(1H-pyrazolo[3,4-c]pyridin-5-yl)phenol]	≥ 7.00
CN(c1ncc(-c2ccc(-c3ccc4ncccc4c3)cc2O)nn1)C1CC(C)(C)NC(C)(C)C1 [Cpd 185, 2-{3-[methyl(2,2,6,6-tetramethylpiperidin-4-yl)amino]-1,2,4-triazin-6-yl}-5-(quinolin-6-yl)phenol]	≥ 7.00
CN(c1ncc(-c2ccc(-c3ccc4c(nnn4C)n3)cc2O)nn1)C1CC(C)(C)NC(C)(C)C1 [Cpd 186, 2-{3-[methyl(2,2,6,6-tetramethylpiperidin-4-yl)amino]-1,2,4-triazin-6-yl}-5-(1-methyl-1H-[1,2,3]triazolo[4,5-b]pyridin-5-yl)phenol]	≥ 7.00
CN(c1ncc(-c2ccc(-c3ccc4c(c3)OCO4)cc2O)nn1)C1CC(C)(C)NC(C)(C)C1 [Cpd 188, 5-(2H-1,3-benzodioxo1-5-yl)-2-{3-[methyl(2,2,6,6-tetramethylpiperidin-4-yl)amino]-1,2,4-triazin-6-yl}phenol]	≥ 7.00
CN(c1ncc(-c2ccc(-c3cnc4[nH]ncc4n3)cc2O)nn1)C1CC(C)(C)NC(C)(C)C1 [Cpd 194, 2-{3-[methyl(2,2,6,6-tetramethylpiperidin-4-yl)amino]-1,2,4-triazin-6-yl}-5-(1H-pyrazolo[3,4-b]pyrazin-5-yl)phenol]	≥ 7.00
CN(c1ncc(-c2ccc(-c3ncc4[nH]ncc4n3)cc2O)nn1)C1CC(C)(C)NC(C)(C)C1 [Cpd 195, 2-{3-[methyl(2,2,6,6-tetramethylpiperidin-4-yl)amino]-1,2,4-triazin-6-yl}-5-(1H-pyrazolo[4,3-d]pyrimidin-5-yl)phenol]	≥ 7.00
CN(c1cnc(-c2ccc(-c3cnn(C)c3)cc2O)nn1)C1CC(C)(C)NC(C)(C)C1 [Cpd 196, 5-(1-methyl-1H-pyrazol-4-yl)-2-{6-[methyl(2,2,6,6-tetramethylpiperidin-4-yl)amino]-1,2,4-triazin-3-yl}phenol]	≥ 7.00
CN(c1ncc(-c2ccc(-c3ccc4c(cnn4C)n3)cc2O)nn1)C1CC(C)(C)NC(C)(C)C1 [Cpd 198, 5-(1-methyl-1H-pyrazolo[4,3-b]pyridin-5-yl)-2-{3-[methyl(2,2,6,6-tetramethylpiperidin-4-yl)amino]-1,2,4-triazin-6-yl}phenol]	≥ 7.00
CN(c1ncc(-c2ccc(-c3ccc4c(c3)nnn4C)cc2O)nn1)C1CC(C)(C)NC(C)(C)C1 [Cpd 200, 5-(1-methyl-1H-benzotriazol-5-yl)-2-{3-[methyl(2,2,6,6-tetramethylpiperidin-4-yl)amino]-1,2,4-triazin-6-yl}phenol]	≥ 7.00
